For 11 molecules, EC50 and Emax results are on record in patent US8173645B2 (Takeda San Diego, Inc., priority 2007, dated 2012).

The target in the test is T1, glucokinase (GK), residues 12-465 of the human enzyme (Homo sapiens, UniProt P35557).
T1 construct: I.D. No. 1 corresponds to residues 12-465 of glucokinase; made in house; host or cells: E. coli DH10b-Tlr
T1 sequence (P35557 with tags, fused parts or gaps isoform P35557-2): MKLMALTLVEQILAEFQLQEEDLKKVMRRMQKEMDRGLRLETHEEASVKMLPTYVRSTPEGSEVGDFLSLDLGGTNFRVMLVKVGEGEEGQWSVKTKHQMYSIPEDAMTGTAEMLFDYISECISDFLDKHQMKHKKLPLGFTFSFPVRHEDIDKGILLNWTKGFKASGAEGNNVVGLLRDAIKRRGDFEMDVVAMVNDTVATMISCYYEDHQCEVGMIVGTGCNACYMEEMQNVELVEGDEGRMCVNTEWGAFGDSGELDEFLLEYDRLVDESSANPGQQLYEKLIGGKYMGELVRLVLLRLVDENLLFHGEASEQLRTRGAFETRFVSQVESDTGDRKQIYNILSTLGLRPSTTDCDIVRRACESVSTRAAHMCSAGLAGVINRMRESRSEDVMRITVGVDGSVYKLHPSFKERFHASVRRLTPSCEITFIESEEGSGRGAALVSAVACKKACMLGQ
Put plainly: Enzymatic glucokinase activity assay (KinaseGlo luminescence, ATP consumption). It is filed as biochemical. To be noted: 5 μM ATP, 5 mM Glucose; for EC50: GK activation, Kact = concentration giving 50% of the maximal increase in GK activity, read-out: pKact; for Emax: calculated maximal gain in GK enzyme activity at a saturating concentration of the compound, read-out: % ACTmax. An excerpt:
The activity of compounds as glucokinase activators may be assayed in vitro, in vivo or in a cell line. Provided below is an enzymatic glucokinase activity assay.
Purified glucokinase may be obtained as follows. DNA encoding residues 12-465 of the full-length sequence of the human enzyme may be amplified by PCR and cloned into the HindIII and EcoRI sites of pFLAG-CTC (Sigma). SEQ. I.D. No. 1 corresponds to residues 12-465 of glucokinase.
The expression of recombinant glucokinase protein may be carried out by transformation and growth of DH10b-Tlr E. coli cells incorporating the (pFLAG-CTC) plasmid in LB media. Protein expression can be induced in this system by the addition of IPTG to the culture medium.
Recombinant protein may be isolated from cellular extracts by passage over Sepharose Q Fast Flow resin (Pharmacia). This partially purified GK extract may then be further purified by a second passage over Poros HQ 10 (Applied Biosystems). The purity of GK may be determined on denaturing SDS-PAGE gel. Purified GK may then be concentrated to a final concentration of 20.0 mg/ml. After flash freezing in liquid nitrogen, the proteins can be stored at −78° C. in a buffer containing 25 mM TRIS-HCl pH 7.6, 50 mM NaCl, and 0.5 mM TCEP.
The activation properties of compounds for GK may be determined using a black 384-well-plate format under the following reaction conditions: 25 mM Hepes pH 7.2, 25 mM NaCl, 10 mM MgCl2, 0.01% Brij35, 1 mM DTT, 5 μM ATP, 5 mM Glucose 2% DMSO. The amount of ATP consumed may be determined quantitatively by addition of equal volume of luciferase reagent (luciferase+beetle luciferin—KinaseGlo Luminescent Kinase Assay kit from Promega). The luminescence intensity may be measured by using the Analyst HT from LJL Biosystems.
The assay reaction may be initiated as follows: 4 μl of substrate mixture (12.5 μM ATP and 12.5 mM Glucose) was added to each well of the plate, followed by the addition of 2 μl of activator (2 fold serial dilutions for 11 data points for each activator) containing 10% DMSO. 4 μL of 1.25 nM GK solution may be added to initiate the reaction. The reaction mixture may then be incubated at room temperature for 60 min, and quenched and developed by addition of 10 μL of luciferase reagent. Luminescence intensities of the resulting reaction mixtures may be measured after a 10 min incubation at room temperature. The luminescence intensity may be measured by using the Analyst HT from LJL Biosystems.
pKact and % ACTmax values may be calculated by non-linear curve fitting of the compound concentrations and luminescence intensities to a standard inhibition/activation equation.

In the case of `O=C(Nc1nccs1)[C@H](CC1CCCCC1)N1CCN(S(=O)(=O)c2ccc(Br)s2)CC1=O` [Example 203, (S)-2-(4-(5-bromothiophen-2-ylsulfonyl)-2-oxopiperazin-1-yl)-3-cyclohexyl-N-(thiazol-2-yl)propanamide], the EC50 was no more than 631 nM and the Emax is 108 to 119%.
The matching figures for `COC(=O)c1ccc(S(=O)(=O)N2CCN([C@@H](CC3CCCCC3)C(=O)Nc3nccs3)C(=O)C2)o1` [Example 158, (S)-methyl 5-(4-(3-cyclohexyl-1-oxo-1-(thiazol-2-ylamino)propan-2-yl)-3-oxopiperazin-1-ylsulfonyl)furan-2-carboxylate]: no less than 3160 nM and 74.1 to 97%.
`Cc1ccc(S(=O)(=O)N2CCN([C@@H](CC3CCCCC3)C(=O)Nc3nccs3)C(=O)C2)c(F)c1` [Example 222, (S)-3-cyclohexyl-2-(4-(2-fluoro-4-methylphenylsulfonyl)-2-oxopiperazin-1-yl)-N-(thiazol-2-yl)propanamide]: the EC50 is no more than 631 nM and the Emax is 108 to 119%.
In the case of `O=C(Nc1nccs1)[C@H](CC1CCCCC1)N1CCN(S(=O)(=O)c2ccccc2F)CC1=O` [Example 205, (S)-3-cyclohexyl-2-(4-(2-fluorophenylsulfonyl)-2-oxopiperazin-1-yl)-N-(thiazol-2-yl)propanamide], the EC50 was no more than 631 nM and the Emax is no less than 119%.
Consider `Cc1oncc1S(=O)(=O)N1CCN([C@@H](CC2CCCCC2)C(=O)Nc2nccs2)C(=O)C1` [Example 60, (S)-3-cyclohexyl-2-(4-(5-methylisoxazol-4-ylsulfonyl)-2-oxopiperazin-1-yl)-N-(thiazol-2-yl)propanamide], for which the EC50 lay within 794 to 1260 nM and the Emax was no more than 74%.
For `O=C(Nc1nccs1)[C@H](CC1CCCCC1)N1CCN(C(=O)NCc2ccc(Cl)cc2)CC1=O` [Example 138, (S)-N-(4-chlorobenzyl)-4-(3-cyclohexyl-1-oxo-1-(thiazol-2-ylamino)propan-2-yl)-3-oxopiperazine-1-carboxamide], the EC50 is no less than 3160 nM and the Emax was no more than 74%.
As for `Cc1cc(F)ccc1S(=O)(=O)N1CCN([C@@H](CC2CCCCC2)C(=O)Nc2nccs2)C(=O)C1` [Example 223, (S)-3-cyclohexyl-2-(4-(4-fluoro-2-methylphenylsulfonyl)-2-oxopiperazin-1-yl)-N-(thiazol-2-yl)propanamide], the EC50 was 1580 to 2510 nM and the Emax was 97.1 to 107%.
Consider `CNC(=O)Nc1ccc(S(=O)(=O)N2CCN([C@@H](CC3CCCCC3)C(=O)Nc3nccs3)C(=O)C2)cc1Cl` [Example 214, (S)-2-(4-(3-chloro-4-(3-methylureido)phenylsulfonyl)-2-oxopiperazin-1-yl)-3-cyclohexyl-N-(thiazol-2-yl)propanamide], for which the EC50 was in the range of 1580 to 2510 nM and the Emax is 97.1 to 107%.
For the molecule `O=C(Nc1nccs1)[C@H](CC1CCCCC1)N1CCN(S(=O)(=O)c2cccc(Cl)c2F)CC1=O` [Example 188, (S)-2-(4-(3-chloro-2-fluorophenylsulfonyl)-2-oxopiperazin-1-yl)-3-cyclohexyl-N-(thiazol-2-yl)propanamide], the EC50 was no more than 631 nM and the Emax is no less than 119%.
In the case of `O=C(Nc1nccs1)[C@H](CC1CCCCC1)N1CCN(C(=S)NCc2ccco2)CC1=O` [Example 115, (S)-3-cyclohexyl-2-(4-(furan-2-ylmethylcarbamothioyl)-2-oxopiperazin-1-yl)-N-(thiazol-2-yl)propanamide], the EC50 lay in the range of 794 to 1260 nM and the Emax was 97.1 to 107%.
Turning to `COC(=O)c1c(C)oc(C)c1S(=O)(=O)N1CCN([C@@H](CC2CCCCC2)C(=O)Nc2nccs2)C(=O)C1` [Example 162, (S)-methyl 4-(4-(3-cyclohexyl-1-oxo-1-(thiazol-2-ylamino)propan-2-yl)-3-oxopiperazin-1-ylsulfonyl)-2,5-dimethylfuran-3-carboxylate], the EC50 was no less than 3160 nM and the Emax was no more than 74%.
